From BigSolDB 2.1

CC(=O)Nc1ccc(OC(=O)c2ccccc2OC(C)=O)cc1
solubility (mole fraction)
Settings | 278.15 K | 283.15 K | 288.15 K | 293.15 K | 298.15 K | 303.15 K | 308.15 K | 313.15 K | 318.15 K | 323.15 K
in DMAc | 0.058 | 0.0623 | 0.0687 | 0.075 | 0.0814 | 0.0875 | 0.0954 | 0.103 | 0.112 | 0.12
in DMSO | – | – | – | 0.0385 | 0.0463 | 0.0544 | 0.0637 | 0.0743 | 0.0865 | 0.1
in methyl acetate | 0.0011 | 0.00138 | 0.00164 | 0.00199 | 0.00238 | 0.00289 | 0.00344 | 0.00412 | 0.00496 | 0.00602
in n-butyl acetate | 0.000482 | 0.000609 | 0.000727 | 0.000899 | 0.00106 | 0.0013 | 0.0016 | 0.00189 | 0.00229 | 0.00272
in n-pentyl acetate | 0.000309 | 0.000392 | 0.000509 | 0.000638 | 0.000794 | 0.000983 | 0.00121 | 0.00149 | 0.0018 | 0.00217
in n-propyl acetate | 0.00053 | 0.000653 | 0.000831 | 0.00104 | 0.00127 | 0.00154 | 0.00186 | 0.00221 | 0.00275 | 0.00324
